Like-named read-outs stand apart in the source and are kept apart here.

In the experiment the target is T1, IRAK4 (Homo sapiens, UniProt Q9NWZ3).
T1 sequence (Q9NWZ3 1-460): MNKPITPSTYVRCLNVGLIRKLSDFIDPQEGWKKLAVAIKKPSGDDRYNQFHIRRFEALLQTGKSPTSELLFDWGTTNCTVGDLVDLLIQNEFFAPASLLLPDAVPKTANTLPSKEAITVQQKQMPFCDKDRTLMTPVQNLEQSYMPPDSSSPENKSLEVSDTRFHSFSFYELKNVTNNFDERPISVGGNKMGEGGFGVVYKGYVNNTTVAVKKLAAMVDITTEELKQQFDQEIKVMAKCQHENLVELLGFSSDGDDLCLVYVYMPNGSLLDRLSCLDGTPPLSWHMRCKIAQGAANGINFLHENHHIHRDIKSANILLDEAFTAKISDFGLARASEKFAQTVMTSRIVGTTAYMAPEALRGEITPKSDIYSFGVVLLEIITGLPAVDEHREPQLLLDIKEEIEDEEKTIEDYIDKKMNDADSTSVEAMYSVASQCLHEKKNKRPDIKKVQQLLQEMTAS
As to the kind of experiment: Hibit fluorescence detection of proteolysis (IRAK4-HiBiT in HEK293T cells). As to conditions: for Dmax: HEK-293T; for DC50: IRAK4-HiBiT, HEK293T cells, 24 h. More on the design: host or cells: HEK293T (ATCC). The format is cell-based. The method, then:
Utilizing HiBiT tag technology, the HiBiT tag-containing sequence (Seq. ID. No. 1, Beijing Tsingke Biotech Co., Ltd.) was connected to the IRAK4 plasmid (Seq. ID. No. 2, Beijing Tsingke Biotech Co., Ltd.), and the plasmid was transfected into HEK293T cells (ATCC). […] The 6-well plate that was incubated overnight was taken out. After the plate was left at room temperature for 15 min, the obtained mixture was added dropwise to the 6-well plate. […] Culture was performed at 37°C and 5% CO2 for 24 h. The 384-well plate was taken out and equilibrated to room temperature. 40 µL of Nano-Glo® HiBiT Lytic Detection System (Promega N3030) was added to each well and incubated at room temperature for 15 min. […] Prism 9.3 software was used to perform fitting analysis for data, and non-linear fitting (non-liner inhibitor (Bell-shaped)) and four parameters (4 parameter) were used, and the parameters was as follows: Span1 = Plateau1−Dip [formula] Span2 = Plateau2−Dip [formula] Section1 = Span1/(1+10^(∧)((LogEC50_1−X)*nH1)) [formula] Section2 = Span2/(1+10^(∧)((X−LogEC50_2)*nH2)) [formula]
The equation was as follows: Y=Dip+Section1+Section2. • Seq. ID. No. 1 ([…]), other DNA, synthetic construct, sequence length 33; • Seq. ID. No. 2 [formula]
For orientation: The HiBiT peptide binds its large partner to form an active luciferase.

Consider `Cn1c(=O)n(C2CCC(=O)NC2=O)c2cccc(N3CCN(C4CCN(C[C@H]5CC[C@H](n6cc(-n7cc(-c8cnn9ccc(NCCC(C)(C)O)nc89)nn7)c(C(F)F)n6)CC5)CC4)CC3)c21` (stereo partly drawn) [Example 133], for which the Dmax was > 80% and the DC50 is < 0.5 nM.
Turning to `Cn1c(=O)n(C2CCC(=O)NC2=O)c2cccc(N3CCN(C4CCN(C[C@H]5CC[C@H](n6cc(-n7cc(-c8cnn9ccc(N[C@H]%10CCCC[C@H]%10O)nc89)nn7)c(C(F)F)n6)CC5)CC4)CC3)c21` (stereo partly drawn) [Example 149], the Dmax is > 80% and the DC50 is < 0.5 nM.
Take `Cn1c(=O)n(C2CCC(=O)NC2=O)c2cccc(N3CCN(C[C@H]4CC[C@H](n5cc(-n6cc(-c7cnn8ccc(NCCC(C)(C)O)nc78)nn6)c(C(F)F)n5)CC4)CC3)c21` (stereo partly drawn) [Compound 239]: the Dmax was > 80%. The DC50 (read-out: DC50) was < 0.5 nM.
As for `C[C@@H]1CN(C[C@H]2CC[C@H](n3cc(-n4cc(-c5ccc6cc(C(N)=O)cnn56)nn4)c(C(F)F)n3)CC2)CCN1c1cccc2c1n(C)c(=O)n2C1CCC(=O)NC1=O` (stereo partly drawn) [Example 51, 7-(1-(3-(difluoromethyl)-1-((1R,4r)-4-(((3R)-4-(1-(2,6-dioxopiperidin-3-yl)-3-methyl-2-oxo-2,3-dihydro-1H-benzo[d]imidazol-4-yl)-3-methylpiperazin-1-yl)methyl)cyclohexyl)-1H-pyrazol-4-yl)-1H-1,2,3-triazol-4-yl)pyrrolo[1,2-b]pyridazine-3-carboxamide], the Dmax is > 80% and the DC50 was < 0.5 nM.
Consider `Cn1c(=O)n(C2CCC(=O)NC2=O)c2cccc(C#CCOC3CCN(C[C@H]4CC[C@H](n5cc(-n6cc(-c7cnn8ccc(N9CCOCC9)nc78)nn6)c(C(F)F)n5)CC4)CC3)c21` (stereo partly drawn) [Example 7], for which the Dmax was 60 to 70% and the DC50 is < 0.5 nM.
The like results for `O=C1CCC(NC(=O)c2ccc(N3CCN(C[C@H]4CC[C@H](n5cc(-n6cc(-c7cnn8ccc(N9CCOCC9)nc78)nn6)c(C(F)F)n5)CC4)CC3)cc2F)C(=O)N1` (stereo partly drawn) [Example 28] were, in that order, 60 to 70% and > 5 nM.
On to `Cn1c(=O)n(C2CCC(=O)NC2=O)c2cccc(N3CCC4(CCN(C[C@H]5CC[C@H](n6cc(-n7cc(-c8cnn9ccc(N%10CC%11(COC%11)C%10)nc89)nn7)c(C(F)F)n6)CC5)CC4)CC3)c21` (stereo partly drawn) [Compound 223], for which the Dmax is > 80%. Also, the DC50 (read-out: DC50) is < 0.5 nM.
As for `NC(=O)c1cnn2c(-c3cn(-c4cn(C5CCN(CC6CN(c7ccc8c(c7)C(=O)N(C7CCC(=O)NC7=O)C8=O)C6)CC5)nc4C(F)F)nn3)ccc2c1` (stereo not drawn) [Example 75], the Dmax is > 80% and the DC50 lay within 0.5 to 1 nM.
Take `CN(C[C@H]1CC[C@H](n2cc(-n3cc(-c4cnn5ccc(N6CCOCC6)nc45)nn3)c(C(F)F)n2)CC1)C1CCC2(CC1)CC(Nc1cccc3c1n(C)c(=O)n3C1CCC(=O)NC1=O)C2` (stereo partly drawn) [Example 23, 3-(4-((7-((((1r,4r)-4-(3-(difluoromethyl)-4-(4-(5-morpholinopyrazolo[1,5-a]pyrimidin-3-yl)-1H-1,2,3-triazol-1-yl)-1H-pyrazol-1-yl)cyclohexyl)methyl)(methyl)amino)spiro[3.5]nonan-2-yl)amino)-3-methyl-2-oxo-2,3-dihydro-1H-benzo[d]imidazol-1-yl)piperidine-2,6-dione]: the Dmax was > 80% and the DC50 is < 0.5 nM.
The matching figures for `Cn1c(=O)n(C2CCC(=O)NC2=O)c2cccc(N3C4CCC3CN(C[C@H]3CC[C@H](n5cc(-n6cc(-c7ccc8cc(C(N)=O)cnn78)nn6)c(C(F)F)n5)CC3)C4)c21` (stereo partly drawn) [Example 92, 7-(1-(3-(difluoromethyl)-1-((1r,4r)-4-(8-(1-(2,6-dioxopiperidin-3-yl)-3-methyl-2-oxo-2,3-dihydro-1H-benzo[d]imidazol-4-yl)-3,8-diazabicyclo[3.2.1]oct-3-yl)methyl)cyclohexyl-1H-pyrazol-4-yl)-1H-1,2,3-triazol-4-yl)pyrrolo[1,2-b]pyridazine-3-carboxamide]: > 80% and 1 to 5 nM.
The matching figures for `NC(=O)c1cnn2c(-c3cn(-c4cn([C@H]5CC[C@H](CN6CCN(c7ccc8c(c7)CN(C7CCC(=O)NC7=O)C8=O)CC6)CC5)nc4C(F)F)nn3)ccc2c1` (stereo partly drawn) [Example 72, 7-(1-(3-(difluoromethyl)-1-((1r,4r)-4-((4-(2-(2,6-dioxopiperidin-3-yl)-1-oxoisoindolin-5-yl)piperazin-1-yl)methyl)cyclohexyl)-1H-pyrazol-4-yl)-1H-1,2,3-triazol-4yl)pyrrolo[1,2-b]pyridazine-3-carboxamide]: 60 to 70% and < 0.5 nM.
`Cn1c(=O)n(C2CCC(=O)NC2=O)c2cccc(C(=O)N3CCC(NC[C@H]4CC[C@H](n5cc(-n6cc(-c7cnn8ccc(N9CCOCC9)nc78)nn6)c(C(F)F)n5)CC4)CC3)c21` (stereo partly drawn) [Example 29]: the Dmax was in the range of 70 to 80% and the DC50 was > 5 nM.
On to `Cn1c(=O)n(C2CCC(=O)NC2=O)c2cccc(N[C@H]3CC[C@H](N(C)C[C@H]4CC[C@H](n5cc(-n6cc(-c7cnn8ccc(NCC9CC9)nc78)nn6)c(C(F)F)n5)CC4)CC3)c21` (stereo partly drawn) [Compound 226], for which the Dmax was > 80%. Also, the DC50 (read-out: DC50) was < 0.5 nM.
As to `Cn1c(=O)n(C2CCC(=O)NC2=O)c2cccc(N3CCN(C4CCN(C[C@H]5CC[C@H](n6cc(-n7cc(-c8cnn9ccc(NCC%10CC%10)nc89)nn7)c(C(F)F)n6)CC5)CC4)CC3)c21` (stereo partly drawn) [Example 110, 3-(4-(4-(1-(((1r,4r)-4-(4-(5-((cyclopropylmethyl)amino)pyrazolo[1,5-a]pyrimidin-3-yl)-1H-1,2,3-triazol-1-yl)-3-(difluoromethyl)-1H-pyrazol-1-ylcyclohexyl)methyl)piperidin-4-yl)piperazin-1-yl)3-methyl-2-oxo-2,3-dihydro-1H-benzo[d]imidazol-1-yl)piperidine-2,6-dione], the Dmax is > 80% and the DC50 is < 0.5 nM.
Turning to `Cn1c(=O)n(C2CCC(=O)NC2=O)c2cccc(N3CC4CN(C[C@H]5CC[C@H](n6cc(-n7cc(-c8ccc9cc(C(N)=O)cnn89)nn7)c(C(F)F)n6)CC5)CC4C3)c21` (stereo partly drawn) [Example 81], the Dmax was > 80% and the DC50 was < 0.5 nM.
On to `CN1CCN(c2ccn3ncc(-c4cn(-c5cn([C@H]6CC[C@H](CN7CCC8(CC7)CCN(c7cccc9c7n(C)c(=O)n9C7CCC(=O)NC7=O)CC8)CC6)nc5C(F)F)nn4)c3n2)CC1` (stereo partly drawn) [Compound 233], for which the Dmax lay in the range of 70 to 80%. Besides, the DC50 (read-out: DC50) was in the range of 0.5 to 1 nM.
`Cn1c(=O)n(C2CCC(=O)NC2=O)c2cccc(C#CC3(O)CN(C[C@H]4CC[C@H](n5cc(-n6cc(-c7ccc8cc(C(N)=O)cnn78)nn6)c(C(F)F)n5)CC4)C3)c21` (stereo partly drawn) [Example 19] displayed a Dmax of 70 to 80% and a DC50 of 0.5 to 1 nM.
The matching figures for `Cn1c(=O)n(C2CCC(=O)NC2=O)c2cccc(NC3CCN(C[C@H]4CC[C@H](n5cc(-n6cc(-c7ccc8cc(C(N)=O)cnn78)nn6)c(C(F)F)n5)CC4)CC3)c21` (stereo partly drawn) [Example 66, 7-(1-(3-(difluoromethyl)-1-((1r,4r)-4-((4-((1-(2,6-dioxopiperidin-3-yl)-3-methyl-2-oxo-2,3-dihydro-1H-benzo[d]imidazol-4-yl)amino)piperidin-1-yl)methyl)cyclohexyl)-1H-pyrazol-4-yl)-1H-1,2,3-triazol-4-yl)pyrrolo[1,2-b]pyridazine-3-carboxamide]: 70 to 80% and < 0.5 nM.

The record behind these values is EP4759807A1, “PROTEOLYSIS TARGETING CHIMERA COMPOUND FOR DEGRADING IRAK4 AND USE THEREOF” (Shenzhen Zhongge Biological Technology Co., Ltd., priority 2023, dated 2025).
